Laboratory results taken from patent US10246456B2, “IRAK4 inhibiting agents” (BIOGEN MA INC., priority 2014, dated 2019).

Each compound was assayed against IRAK4 (Homo sapiens (Human), UniProt Q9NWZ3) (assay: IRAK-4 AlphaScreen biochemical kinase assay). Conditions: 1 nM IRAK4, 1 mM ATP, 3.5 h at RT.
Description: The biochemical assay is in a AlphaScreen format. The kinase reaction is based on the IRAK-4 phosphorylation of a biotin labeled peptide. The phosphopeptide is incubated with anti-phosphothreonine antibody as well as streptavidin- and protein A-coated beads. Binding of the protein-A coated beads to the antibody and the streptavidin beads to the peptide, leads to an energy transfer from one bead to the other, ultimately producing a luminescent/fluorescent signal.

Sequence of IRAK4 (Q9NWZ3 whole entry, species assumed): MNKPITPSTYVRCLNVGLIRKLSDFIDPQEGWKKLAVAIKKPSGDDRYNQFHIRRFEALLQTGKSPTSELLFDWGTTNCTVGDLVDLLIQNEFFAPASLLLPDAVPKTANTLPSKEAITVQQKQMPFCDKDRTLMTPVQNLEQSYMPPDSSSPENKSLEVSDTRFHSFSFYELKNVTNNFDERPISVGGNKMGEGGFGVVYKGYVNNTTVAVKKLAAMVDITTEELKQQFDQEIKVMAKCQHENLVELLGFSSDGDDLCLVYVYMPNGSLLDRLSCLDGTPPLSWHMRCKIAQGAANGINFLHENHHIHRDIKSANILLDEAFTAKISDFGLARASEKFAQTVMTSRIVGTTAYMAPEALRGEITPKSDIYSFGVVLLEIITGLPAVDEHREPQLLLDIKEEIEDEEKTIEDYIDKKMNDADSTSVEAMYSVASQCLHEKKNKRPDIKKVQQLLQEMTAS

Row | IC50 | Compound
1 | < 0.1 µM | CC(N)c1cccc(-c2ccc3cnn(-c4cccc(C(F)(F)F)n4)c3c2)n1 (racemic) [Example 209, 1-(6-(1-(6-(trifluoromethyl)pyridin-2-yl)-1H-indazol-6-yl)pyridin-2-yl)ethanamine]
2 | < 0.1 µM | CNC(C)c1cccc(-c2ccc3cnn(-c4cccc(C(F)(F)F)n4)c3c2)n1 (single isomer, unassigned) [Example 117, N-methyl-1-(6-(1-(6-(trifluoromethyl)pyridin-2-yl)-1H-indazol-6-yl)pyridin-2-yl)ethanamine]
3 | < 0.1 µM | CCC[C@H](N)c1cccc(-c2ccc3cnn(-c4cccc(C(C)O)n4)c3c2)n1 (single isomer, unassigned) [Example 417]
4 | < 0.1 µM | CC(N)c1cccc(-c2ccc3cnn(-c4cccc(C(F)(F)F)n4)c3c2)n1 (single isomer, unassigned; isomer a) [Example 83, 1-(6-(1-(6-(trifluoromethyl)pyridin-2-yl)-1H-indazol-6-yl)pyridin-2-yl)ethanamine-isomer A]
5 | < 0.1 µM | CC(N)c1cccc(-c2ccc3cnn(-c4cccc(C(F)(F)F)n4)c3c2)n1 (single isomer, unassigned; isomer b) [Example 84, 1-(6-(1-(6-(trifluoromethyl)pyridin-2-yl)-1H-indazol-6-yl)pyridin-2-yl)ethanamine-isomer B]
6 | 0.1 to 1 µM | Cc1cccc(-n2ncc3ccc(-c4cccc(CN)n4)cc32)n1 [Example 4, (6-(1-(6-methylpyridin-2-yl)-1H-indazol-6-yl)pyridin-2-yl)methanamine]
7 | 1 to 10 µM | Cc1cccc(-n2ncc3ccc(-c4cc(CN)ccn4)cc32)n1 [Example 5, (2-(1-(6-methylpyridin-2-yl)-1H-indazol-6-yl)pyridin-4-yl)methanamine]
8 | 0.1 to 1 µM | Cc1cccc(-n2ncc3ccc(-c4nccc(CN)n4)cc32)n1 [Example 9, (2-(1-(6-methylpyridin-2-yl)-1H-indazol-6-yl)pyrimidin-4-yl)methanamine]
9 | 1 to 10 µM | Cc1cccc(-n2ncc3ccc(-c4cc(N)cnc4O)cc32)n1 [Example 11, 5-amino-3-(1-(6-methylpyridin-2-yl)-1H-indazol-6-yl)pyridin-2-ol]
10 | 1 to 10 µM | Cc1cccc(-n2ncc3ccc(-c4cncc(N)c4O)cc32)n1 [Example 12, 3-amino-5-(1-(6-methylpyridin-2-yl)-1H-indazol-6-yl)pyridin-4-ol]
11 | 0.1 to 1 µM | CNc1cncc(-c2ccc3cnn(-c4cccc(C)n4)c3c2)c1 [Example 13, N-methyl-5-(1-(6-methylpyridin-2-yl)-1H-indazol-6-yl)pyridin-3-amine]
12 | 0.1 to 1 µM | Cc1cccc(-n2ncc3ccc(-c4cccc(CN(C)C)n4)cc32)n1 [Example 14, N,N-dimethyl-1-(6-(1-(6-methylpyridin-2-yl)-1H-indazol-6-yl)pyridin-2-yl)methanamine]
13 | < 0.1 µM | CNCc1cccc(-c2ccc3cnn(-c4cccc(C)n4)c3c2)c1 [Example 18, N-methyl-1-(3-(1-(6-methylpyridin-2-yl)-1H-indazol-6-yl)phenyl)methanamine]
14 | 0.1 to 1 µM | N#Cc1cccc(-n2ncc3ccc(-c4cccc(N)c4)cc32)c1 [Example 20, 3-(6-(3-aminophenyl)-1H-indazol-1-yl)benzonitrile]
15 | 0.1 to 1 µM | Nc1cccc(-c2ccc3cnn(-c4ccccn4)c3c2)c1 [Example 21, 3-(1-(pyridin-2-yl)-1H-indazol-6-yl)aniline]
16 | < 0.1 µM | N#Cc1cccc(-n2ncc3ccc(-c4cccc(N)c4)cc32)n1 [Example 22, 6-(6-(3-aminophenyl)-1H-indazol-1-yl)picolinonitrile]
17 | 1 to 10 µM | Cc1cc(C)nc(-n2ncc3ccc(-c4cccc(N)c4)cc32)c1 [Example 23, 3-(1-(4,6-dimethylpyridin-2-yl)-1H-indazol-6-yl)aniline]

Row | IC50 | Compound
18 | 1 to 10 µM | Cc1ccc(-n2ncc3ccc(-c4cccc(N)c4)cc32)nc1C [Example 24, 3-(1-(5,6-dimethylpyridin-2-yl)-1H-indazol-6-yl)aniline]
19 | < 0.1 µM | Nc1cccc(-c2ccc3cnn(-c4cccc(C(F)(F)F)n4)c3c2)c1 [Example 25, 3-(1-(6-(trifluoromethyl)pyridin-2-yl)-1H-indazol-6-yl)aniline]
20 | < 0.1 µM | Nc1cncc(-c2ccc3cnn(-c4cccc(C5CC5)n4)c3c2)c1 [Example 27, 5-(1-(6-cyclopropylpyridin-2-yl)-1H-indazol-6-yl)pyridin-3-amine]
21 | 1 to 10 µM | Nc1cncc(-c2ccc3cnn(-c4cccc(C5CCC5)n4)c3c2)c1 [Example 28, 5-(1-(6-cyclobutylpyridin-2-yl)-1H-indazol-6-yl)pyridin-3-amine]
22 | < 0.1 µM | N#Cc1cccc(-n2ncc3ccc(-c4cncc(N)c4)cc32)n1 [Example 29, 6-(6-(5-aminopyridin-3-yl)-1H-indazol-1-yl)picolinonitrile]
23 | 0.1 to 1 µM | N#Cc1cccc(-n2ncc3ccc(-c4cncc(N)c4)cc32)c1 [Example 33, 3-(6-(5-aminopyridin-3-yl)-1H-indazol-1-yl)benzonitrile]
24 | 0.1 to 1 µM | Cc1cc(C#N)cc(-n2ncc3ccc(-c4cncc(N)c4)cc32)n1 [Example 34, 2-(6-(5-aminopyridin-3-yl)-1H-indazol-1-yl)-6-methylisonicotinonitrile]
25 | 0.1 to 1 µM | N#Cc1ccnc(-n2ncc3ccc(-c4cncc(N)c4)cc32)c1 [Example 35, 2-(6-(5-aminopyridin-3-yl)-1H-indazol-1-yl)isonicotinonitrile]
26 | < 0.1 µM | Cc1ccnc(-n2ncc3ccc(-c4cncc(N)c4)cc32)n1 [Example 36, 5-(1-(4-methylpyrimidin-2-yl)-1H-indazol-6-yl)pyridin-3-amine]
27 | < 0.1 µM | N#Cc1ccnc(-n2ncc3ccc(-c4cncc(N)c4)cc32)n1 [Example 37, 2-(6-(5-aminopyridin-3-yl)-1H-indazol-1-yl)pyrimidine-4-carbonitrile]
28 | 0.1 to 1 µM | Cc1ccnc(-n2ncc3ccc(-c4cncc(N)c4)cc32)c1 [Example 39, 5-(1-(4-methylpyridin-2-yl)-1H-indazol-6-yl)pyridin-3-amine]
29 | < 0.1 µM | Nc1cncc(-c2ccc3cnn(-c4cccc(C(F)(F)F)n4)c3c2)c1 [Example 40, 5-(1-(6-(trifluoromethyl)pyridin-2-yl)-1H-indazol-6-yl)pyridin-3-amine]
30 | < 0.1 µM | Cc1cccc(-c2ncc3ccc(-c4cncc(N)c4)cn23)n1 [Example 41, 5-(3-(6-methylpyridin-2-yl)imidazo[1,5-a]pyridin-6-yl)pyridin-3-amine]
31 | < 0.1 µM | Cc1cccc(-c2ncc3ccc(-c4cccc(N)c4)cn23)n1 [Example 42, 3-(3-(6-methylpyridin-2-yl)imidazo[1,5-a]pyridin-6-yl)aniline]
32 | 0.1 to 1 µM | Cc1cccc(-n2ncc3cc(F)c(-c4cncc(N)c4)cc32)n1 [Example 43, 5-(5-fluoro-1-(6-methylpyridin-2-yl)-1H-indazol-6-yl)pyridin-3-amine]
33 | 1 to 10 µM | Cc1cccc(-n2ncc3cc(C)c(-c4cncc(N)c4)cc32)n1 [Example 44, 5-(5-methyl-1-(6-methylpyridin-2-yl)-1H-indazol-6-yl)pyridin-3-amine]

Row | Compound | IC50
34 | 1-(6-methylpyridin-2-yl)-1H-pyrazolo[4,3-c]pyridin-7-amine [Example 200] | < 0.1 µM
35 | Cc1cccc(-n2ncc3ccc(-c4cccc(N)n4)cc32)n1 [Example 1, 6-(1-(6-methylpyridin-2-yl)-1H-indazol-6-yl)pyridin-2-amine] | 0.1 to 1 µM
36 | Cc1cccc(-n2ncc3ccc(-c4nccc(N)n4)cc32)n1 [Example 2, 2-(1-(6-methylpyridin-2-yl)-1H-indazol-6-yl)pyrimidin-4-amine] | 1 to 10 µM
37 | Cc1cccc(-n2ncc3ccc(-c4cc(N)ccn4)cc32)n1 [Example 3, 2-(1-(6-methylpyridin-2-yl)-1H-indazol-6-yl)pyridin-4-amine] | 1 to 10 µM
38 | Cc1cccc(-n2ncc3ccc(-c4ccnc(N)c4)cc32)n1 [Example 6, 4-(1-(6-methylpyridin-2-yl)-1H-indazol-6-yl)pyridin-2-amine] | 0.1 to 1 µM
39 | Cc1cccc(-n2ncc3ccc(-c4cccc(N)c4)cc32)n1 [Example 8, 3-(1-(6-methylpyridin-2-yl)-1H-indazol-6-yl)aniline] | 0.1 to 1 µM
40 | Cc1cccc(-n2ncc3ccc(-c4cncc(N)c4C)cc32)n1 [Example 10, 4-methyl-5-(1-(6-methylpyridin-2-yl)-1H-indazol-6-yl)pyridin-3-amine] | 1 to 10 µM
41 | Cc1cccc(-n2ncc3ccc(-c4cccc5c4CCNC5)cc32)n1 [Example 15, 5-(1-(6-methylpyridin-2-yl)-1H-indazol-6-yl)-1,2,3,4-tetrahydroisoquinoline] | 1 to 10 µM
42 | Cc1cccc(-n2ncc3ccc(-c4cccc5c4CCN(C)C5)cc32)n1 [Example 16, 2-methyl-5-(1-(6-methylpyridin-2-yl)-1H-indazol-6-yl)-1,2,3,4-tetrahydroisoquinoline] | 1 to 10 µM
43 | Cc1cccc(-n2ncc3ccc(-c4cccc5c4CN(C)C5)cc32)n1 [Example 17, 6-(2-methylisoindolin-4-yl)-1-(6-methylpyridin-2-yl)-1H-indazole] | 1 to 10 µM
44 | Nc1cncc(-c2ccc3cnn(-c4cccc(C(=O)O)n4)c3c2)c1 [Example 30, 6-(6-(5-aminopyridin-3-yl)-1H-indazol-1-yl)picolinic acid] | 0.1 to 1 µM
45 | NC(=O)c1cccc(-n2ncc3ccc(-c4cncc(N)c4)cc32)n1 [Example 31, 6-(6-(5-aminopyridin-3-yl)-1H-indazol-1-yl)picolinamide] | < 0.1 µM
46 | CNC(=O)c1cccc(-n2ncc3ccc(-c4cncc(N)c4)cc32)n1 [Example 32, 6-(6-(5-aminopyridin-3-yl)-1H-indazol-1-yl)-N-methylpicolinamide] | 0.1 to 1 µM
47 | Cc1ccc(Cl)c(-n2ncc3ccc(-c4cncc(N)c4)cc32)n1 [Example 38, 5-(1-(3-chloro-6-methylpyridin-2-yl)-1H-indazol-6-yl)pyridin-3-amine] | 1 to 10 µM
